Measured values from paper PMC10308769, “First reported double drug–drug interaction in a cancer renal patient under everolimus treatment: therapeutic drug monitoring and review of literature” (European Journal of Medical Research, 2023).
“Also recorded” adds a separate entry of the source. Like-named read-outs stand apart in the source and are kept apart here.

Legend:
[1] = test system: renal cell carcinoma (RCC); assay: Clinical course of the case patient: toxicities, response, PFS; format: in vivo
Procedure: A person with smoking and epilepsy history was diagnosed from a stage pT3a renal carcinoma in December 2015. Radical right nephrectomy was performed in February 2016. In September 2018, a right lung segmentectomy was practiced due to lepidic adenocarcinoma growth. On February 2021 progression was detected with right adrenal massive bleeding, hilar adenopathy and left renal adrenal metastasis. Nivolumab was initiated as first-line treatment in May 2021 for intermediate-risk clear-cell RCC. […] In December 2021, new progression was detected and second-line treatment with cabozantinib 60 mg daily was started.
(§1) This finding was discussed within the multidisciplinary team, including the oncologist and the pharmacist, and a TDM plan was planned. Method used for analysis was ultra-high-performance liquid chromatography coupled to tandem mass spectrometry.
Everolimus dose was increased from 10 mg QD to 15 mg daily (administered 10 mg, 1 h before breakfast and 5 mg, 1 h before dinner). […] However, a second dose adjustment was needed, 10 mg BID, administered before meals. Two weeks and a month later, new TDM were planned and Cminss were 10.6 ng/ml and 8.7 ng/ml, respectively (Fig. 2). […] Unfortunately, everolimus treatment was stopped on July 2022, due to lung progression, pleural effusion, and respiratory insufficiency, and finally patient died.

[2] = test system: CYP3A4; set-up: method as in lexicomp and drugs databases; settings: ref lexicomp and drugs databases; cited from earlier work
[3] = set-up: method as in PMID 28762135; settings: 10 patients, cited from earlier work
[4] = set-up: method as in product label; settings: ref product label, cited from earlier work
[5] = set-up: method as in PMID 24332451; settings: cited from earlier work
[6] = test system: renal cancer; set-up: method as in PMID 27279544; settings: renal cancer patients, second or third-line therapy; cited from earlier work
[7] = set-up: method as in PMID 25361989; settings: cited from earlier work
[8] = set-up: method as in PMID 16187976; settings: single 2 mg dose everolimus with verapamil 80 mg three times daily, 16 healthy subjects; cited from earlier work
[9] = test system: renal cancer; set-up: method as in PMID 22209391; settings: cited from earlier work
[10] = Therapeutic drug monitoring of everolimus in the case patient (UHPLC-MS/MS); format: in vivo; settings: human, plasma, oral, co-medication carbamazepine and phenytoin, read-out: Cminss
Source text: as §1

[11] = set-up: method as in earlier work; settings: single oral 10 mg dose, cited from earlier work
[12] = set-up: method as in PMID 15785960; settings: single 2-mg dose everolimus with erythromycin 500 mg TID for 9 days; cited from earlier work
[13] = test system: breast cancer; set-up: method as in PMID 36188563; settings: cited from earlier work

Q: For `COc1cc2nccc(Oc3ccc(NC(=O)C4(C(=O)Nc5ccc(F)cc5)CC4)cc3)c2cc1OC` [cabozantinib], which adverse events ([1]; cabozantinib 60 mg daily second-line treatment, case patient) is on record?
A: Its adverse events is “hypertension grade I; also recorded: nausea and diarrhea grade I”.

Q: With `NC(=O)N1c2ccccc2C=Cc2ccccc21` [carbamazepine] as the compound, how does the “classification of effect on CYP3A4 metabolism” value [2] read?
A: The value was “strong inducers”.

Q: For `CO[C@H]1C[C@@H]2CC[C@@H](C)[C@@](O)(O2)C(=O)C(=O)N2CCCC[C@H]2C(=O)O[C@H]([C@H](C)C[C@@H]2CC[C@@H](OCCO)[C@H](OC)C2)CC(=O)[C@H](C)/C=C(\C)[C@@H](O)[C@@H](OC)C(=O)[C@H](C)C[C@H](C)/C=C/C=C/C=C/1C` [everolimus], which AUC ([3]; 5 mg twice daily) is on record?
A: Its AUC is 436 ng·h/mL.

Q: What about the “maximum concentration (Cmax)” value ([3]; 5 mg twice daily) of the same compound?
A: Its value is 40.3 ng/mL.

Q: What about the “minimum steady-state concentration (Cminss)” value ([3]; 5 mg twice daily) of the same compound?
A: Its value is 13.7 ng/mL.

Q: And the AUC ([3]; 10 mg once daily)?
A: The AUC was 435 ng·h/mL.

Q: What about the “maximum concentration (Cmax)” value ([3]; 10 mg once daily) of the same compound?
A: The value was 61.5 ng/mL.

Q: What about the “minimum steady-state concentration (Cminss)” value ([3]; 10 mg once daily) of the same compound?
A: Its value is 9.6 ng/mL.

Q: And the “time to peak concentration” value ([4]; oral)?
A: Its value is 1.3 to 1.8 h.

Q: What about the “time to steady state” value [4] of the same compound?
A: Its value is 7 to 14 days.

Q: And the “mean Cminss” value ([5]; 945 patients, lung, renal and neuroendocrine tumors)?
A: The value was 15.65 ng/mL.

Q: What about the “patients achieving optimal plasmatic concentrations (10-30 ng/ml)” value ([5]; lung cancer) of the same compound?
A: The value was 55.2%.

Q: What about the “patients achieving optimal plasmatic concentrations (10-30 ng/ml)” value ([5]; neuroendocrine tumors) of the same compound?
A: Its value is 45%.

Q: And the “patients achieving optimal plasmatic concentrations (10-30 ng/ml)” value ([5]; renal cancer)?
A: Its value is 62.9%.

Q: And the “decrease of Cminss” value ([5]; with CYP3A4 inducers)?
A: The value was 7%.

Q: And the “increase of Cminss” value ([5]; with strong CYP3A4 inhibitors)?
A: The value was 10%.

Q: What about the “median PFS” value [6] of the same compound?
A: Its value is 3.8 months.

Q: What about the PFS ([1]; case patient, everolimus third line RCC) of the same compound?
A: Its PFS is 3.7 months.

Q: And the toxicities ([1]; during everolimus treatment)?
A: Its toxicities is “no relevant toxicities were observed”.

Q: And the response to treatment ([1]; during everolimus treatment, third line RCC)?
A: The response to treatment was “stable disease; also recorded: stabilization disease”.

Q: And the toxicities ([1]; everolimus 10 mg QD, four weeks after starting treatment)?
A: The toxicities was “no toxicities”.

Q: What about the toxicities ([1]; everolimus 15 mg daily, four weeks later) of the same compound?
A: The toxicities was “without relevant toxicities”.

Q: What about the plasma concentration ([7]; before fenofibrate) of the same compound?
A: The plasma concentration was 10.1 ng/mL.

Q: What about the plasma concentration ([7]; with fenofibrate) of the same compound?
A: The plasma concentration was 4.2 ng/mL.

Q: And the “increase of AUC” value [8]?
A: Its value is 3.5 fold.

Q: What about the “increase of Cmax” value [8] of the same compound?
A: Its value is 2.3 fold.

Q: What about the “median PFS” value ([9]; renal cancer patients, comparison group before the drop (earlier line)) of the same compound?
A: The value was 5.4 months.

Q: What about the “median PFS” value ([9]; third line, previously treated with two anti-VEGFR tyrosine kinase inhibitor) of the same compound?
A: Its value is 4 months.

Q: What about the concentration at 1 month ([10]; 10 mg BID, everolimus 10 mg BID, a month later) of the same compound?
A: Its concentration at 1 month is 8.7 ng/mL.

Q: What about the concentration at 2 weeks ([10]; 10 mg BID, everolimus 10 mg BID, two weeks later) of the same compound?
A: Its concentration at 2 weeks is 10.6 ng/mL.

Q: And the concentration at 4 weeks ([10]; 10 mg QD, everolimus 10 mg QD fasted, four weeks after starting treatment)?
A: Its concentration at 4 weeks is 3.7 ng/mL.

Q: And the concentration at 4 weeks ([10]; 15 mg daily (10 mg + 5 mg), everolimus 15 mg daily (10 mg + 5 mg), four weeks later)?
A: The concentration at 4 weeks was 6.4 ng/mL.

Q: What about the “reduction of AUC” value ([11]; high-fat meal vs fasting) of the same compound?
A: Its value is 33%.

Q: And the “reduction of Cmax” value ([11]; high-fat meal vs fasting)?
A: The value was 54%.

Q: What about the “reduction of AUC” value ([11]; low-fat meal vs fasting) of the same compound?
A: Its value is 22%.

Q: And the “reduction of Cmax” value ([11]; low-fat meal vs fasting)?
A: Its value is 42%.

Q: And the “increase of AUC” value [12]?
A: The value was 4.4 fold.

Q: And the “increase of Cmax” value [12]?
A: Its value is 2.0 fold.

Q: What about the “median PFS” value ([13]; breast cancer patients) of the same compound?
A: Its value is 13.7 months.

Q: And the “median Cminss in patients with dose-limiting toxicities” value [13]?
A: Its value is 19 ng/mL.

Q: What about the “patients with Cminss below 10 ng/ml” value [13] of the same compound?
A: The value was 50%.

Q: With `O=C1NC(=O)C(c2ccccc2)(c2ccccc2)N1` [phenytoin] as the compound, how does the “classification of effect on CYP3A4 metabolism” value [2] read?
A: The value was “strong inducers”.

Q: Which adverse events ([1]; nivolumab first-line treatment, case patient) does the source give for Nivolumab here?
A: Its adverse events is “dry mouth, grade II anorexia and grade I astheny; also recorded: no immune-mediated toxicities”.
